From patent publication US20200247800A1, “SUBSTITUTED BICYCLIC HETEROCYCLIC COMPOUNDS AS NADPH OXIDASE INHIBITORS” (Glenmark Pharmaceuticals S.A., priority 2017, published 2020)

Biological target: T1, human NOX4 (Homo sapiens, UniProt Q9NPH5)
T1 construct: expressed in transfected cells; membrane fraction used
T1 sequence (Q9NPH5 1-578): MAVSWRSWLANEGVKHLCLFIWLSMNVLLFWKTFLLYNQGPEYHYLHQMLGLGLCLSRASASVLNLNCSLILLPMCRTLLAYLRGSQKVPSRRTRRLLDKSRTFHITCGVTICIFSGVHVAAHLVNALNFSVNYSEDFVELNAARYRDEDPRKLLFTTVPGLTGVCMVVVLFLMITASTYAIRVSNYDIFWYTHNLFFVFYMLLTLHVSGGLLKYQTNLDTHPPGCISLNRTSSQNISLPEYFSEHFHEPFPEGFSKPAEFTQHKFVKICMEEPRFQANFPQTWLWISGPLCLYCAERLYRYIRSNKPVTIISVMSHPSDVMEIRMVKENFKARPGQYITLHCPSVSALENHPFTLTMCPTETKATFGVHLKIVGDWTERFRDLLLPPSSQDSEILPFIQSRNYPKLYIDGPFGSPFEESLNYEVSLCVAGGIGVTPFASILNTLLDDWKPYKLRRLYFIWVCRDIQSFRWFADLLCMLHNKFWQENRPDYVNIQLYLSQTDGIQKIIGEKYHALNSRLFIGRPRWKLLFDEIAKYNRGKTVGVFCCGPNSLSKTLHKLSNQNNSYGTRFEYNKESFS
T1 sequence (P13498 1-195 partner): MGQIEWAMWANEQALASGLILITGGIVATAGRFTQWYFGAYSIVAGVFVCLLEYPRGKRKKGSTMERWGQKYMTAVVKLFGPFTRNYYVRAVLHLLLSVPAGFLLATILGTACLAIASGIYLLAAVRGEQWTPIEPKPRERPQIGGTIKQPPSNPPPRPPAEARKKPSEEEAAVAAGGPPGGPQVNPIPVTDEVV
Assay: Cell free membrane based in vitro NOX4 assay: H2O2 production by membranes expressing human NOX4, measured with Amplex Red
Format: biochemical
Settings: for inhibition at 1 µM: 1.0 μM compound, read-out: Percentage inhibition at 1.0 μM; for inhibition at 10 µM: 10.0 μM compound, read-out: Percentage inhibition at 10.0 μM; for IC50: class symbols
Method: The inhibition of NOX4 activity was measured as inhibition of formation of reactive oxygen species (ROS) from oxygen in cell free assays. […] A cell free membrane based in vitro assay was developed by preparing membranes from cells stably overexpressing human NOX4. hNOX4/HEK stable cell line was generated in-house for this purpose. Membranes from stably transfected cells overexpressing human NOX4 were prepared by homogenizing the cells in buffer (20 mM HEPES, 1 mM EGTA, 0.5 mM DTT, 0.5% protease inhibitor cocktail, 1 mM PMSF, pH 7.6), followed by centrifugation at 160000 g for 30 min. Membrane fraction (pellet) was resuspended in storage buffer (homogenization buffer with 10% glycerol and 100 mM NaCl) and stored at −80° C. Protein concentration was determined by Bradford reagent. H202 production by membranes expressing human NOX4 was measured using Amplex Red (Invitrogen) by following a slightly modified version of the manufacturer's instruction manual. Briefly, membranes were incubated in assay buffer (25 mM HEPES, 0.12 M NaCl, 3 mM KCl, 1 mM MgCl2, pH 7.4) with Horse Radish Peroxidase (HRP) and Amplex Red. Reaction was started by addition of […] to the membrane mix. Antagonism of NOX4 inhibitors was measured by incubating the membrane with increasing concentrations of the inhibitors for 20 min on a plate shaker prior to addition of NADPH. H2O2 levels were measured for 10 min in a BMG Fluostar microplate reader with excitation and emission wavelengths of 544 nm and 590 nm respectively. Concentration response curves were plotted as a % of maximal response obtained in the absence of the inhibitor. IC50 value was calculated from concentration response curve by nonlinear regression analysis using GraphPad PRISM software.

inhibition at 1 µM | inhibition at 10 µM | IC50 | SMILES
94.1% | 89.7% | < 50 nM | Cc1nn(C)c2[nH]c(-c3ccccc3Cl)c(O)c(=O)c12 [Example 1, 6-(2-Chlorophenyl)-5-hydroxy-1,3-dimethyl-1,7-dihydro-4H-pyrazolo[3,4-b]pyridin-4-one]
83.5% | 81.5% | 100 to 150 nM | Cc1nn(CCN2CCOCC2)c2[nH]c(-c3ccccc3Cl)c(O)c(=O)c12 [Example 2, 6-(2-Chlorophenyl)-5-hydroxy-3-methyl-1-(2-morpholinoethyl)-1H-pyrazolo[3,4-b]pyridin-4(7H)-one]
93.7% | 100% | 100 to 150 nM | Cn1ncc2c(=O)c(O)c(-c3ccccc3Cl)[nH]c21 [Example 3, 6-(2-Chlorophenyl)-5-hydroxy-1-methyl-1,7-dihydro-4H-pyrazolo[3,4-b]pyridin-4-one]
94.5% | 98.5% | > 150 nM | Cn1ncc2c(=O)c(O)c(-c3cccc(Cl)c3)[nH]c21 [Example 4, 6-(3-Chlorophenyl)-5-hydroxy-1-methyl-1,7-dihydro-4H-pyrazolo[3,4-b]pyridin-4-one]
74% | 84.2% | > 150 nM | Cn1ncc2c(=O)c(O)c(-c3ccc(Cl)cc3Cl)[nH]c21 [Example 5, 6-(2,4-Dichlorophenyl)-5-hydroxy-1-methyl-1,7-dihydro-4H-pyrazolo[3,4-b]pyridin-4-one]
96.3% | 94.3% | 100 to 150 nM | Cn1ncc2c(=O)c(O)c(-c3ccc(F)c(C(F)(F)F)c3)[nH]c21 [Example 6, 6-[4-Fluoro-3-(trifluoromethyl)phenyl]-5-hydroxy-1-methyl-1,7-dihydro-4H-pyrazolo[3,4-b]pyridin-4-one]
100% | 100% | 50 to 100 nM | Cn1ncc2c(=O)c(O)c(-c3c(F)cccc3Cl)[nH]c21 [Example 7, 6-(2-Chloro-6-fluorophenyl)-5-hydroxy-1-methyl-1,7-dihydro-4H-pyrazolo[3,4-b]pyridin-4-one]
87.5% | 100% | 50 to 100 nM | O=c1c(O)c(-c2ccccc2Cl)[nH]c2c1cnn2CC(F)(F)F [Example 8, 6-(2-Chlorophenyl)-5-hydroxy-1-(2,2,2-trifluoroethyl)-1,7-dihydro-4H-pyrazolo[3,4-b]pyridin-4-one]
81.7% | 97.4% | > 150 nM | O=c1c(O)c(-c2c(F)cccc2F)[nH]c2c1cnn2-c1ccc(F)cc1 [Example 9, 6-(2,6-Difluorophenyl)-1-(4-fluorophenyl)-5-hydroxy-1,7-dihydro-4H-pyrazolo[3,4-b]pyridin-4-one]
100% | 100% | < 50 nM | O=c1c(O)c(-c2ccccc2Cl)[nH]c2c1cnn2-c1ccc(F)cc1 [Example 10, 6-(2-Chlorophenyl)-1-(4-fluorophenyl)-5-hydroxy-1,7-dihydro-4H-pyrazolo[3,4-b]pyridin-4-one]
76.6% | 76.5% | 100 to 150 nM | Cc1nn(C)c2[nH]c(-c3ccc(Cl)cc3Cl)c(O)c(=O)c12 [Example 11, 6-(2,4-Dichlorophenyl)-5-hydroxy-1,3-dimethyl-1,7-dihydro-4H-pyrazolo[3,4-b]pyridin-4-one]
95% | 86% | 50 to 100 nM | Cc1nn(C)c2[nH]c(-c3ccc(F)cc3Cl)c(O)c(=O)c12 [Example 12, 6-(2-Chloro-4-fluorophenyl)-5-hydroxy-1,3-dimethyl-1,7-dihydro-4H-pyrazolo[3,4-b]pyridin-4-one]
99.6% | 98.7% | < 50 nM | Cc1nn(C)c2[nH]c(-c3c(F)cccc3F)c(O)c(=O)c12 [Example 13, 6-(2,6-Difluorophenyl)-5-hydroxy-1,3-dimethyl-1,7-dihydro-4H-pyrazolo[3,4-b]pyridin-4-one]
100% | 82.5% | 50 to 100 nM | Cc1nn(C)c2[nH]c(-c3ccc(F)cc3F)c(O)c(=O)c12 [Example 14, 6-(2,4-Difluorophenyl)-5-hydroxy-1,3-dimethyl-1,7-dihydro-4H-pyrazolo[3,4-b]pyridin-4-one]
50.1% | – | – | Cc1ccc(-c2[nH]c3c(c(C)nn3C)c(=O)c2O)cc1C [Example 15, 6-(3,4-Dimethylphenyl)-5-hydroxy-1,3-dimethyl-1,7-dihydro-4H-pyrazolo[3,4-b]pyridin-4-one]
99.7% | – | > 150 nM | Cc1nn(C)c2[nH]c(-c3ccc(OC(F)(F)F)c(F)c3)c(O)c(=O)c12 [Example 16, 6-[3-Fluoro-4-(trifluoromethoxy)phenyl]-5-hydroxy-1,3-dimethyl-1,7-dihydro-4H-pyrazolo[3,4-b]pyridin-4-one]
63.9% | – | – | Cc1nn(C)c2[nH]c(-c3ccc(F)c(F)c3)c(O)c(=O)c12 [Example 17, 6-(3,4-Difluorophenyl)-5-hydroxy-1,3-dimethyl-1,7-dihydro-4H-pyrazolo[3,4-b]pyridin-4-one]
78.6% | 78.4% | 100 to 150 nM | COc1ccc(-c2[nH]c3c(c(C)nn3C)c(=O)c2O)c(Cl)c1 [Example 18, 6-(2-Chloro-4-methoxyphenyl)-5-hydroxy-1,3-dimethyl-1,7-dihydro-4H-pyrazolo[3,4-b]pyridin-4-one]
95.3% | 75.2% | 50 to 100 nM | COc1ccc(-c2[nH]c3c(c(C)nn3C)c(=O)c2O)c(F)c1 [Example 19, 6-(2-Fluoro-4-methoxyphenyl)-5-hydroxy-1,3-dimethyl-1,7-dihydro-4H-pyrazolo[3,4-b]pyridin-4-one]
95.9% | 96.1% | < 50 nM | Cc1nn(C)c2[nH]c(-c3cc(Cl)ccc3Cl)c(O)c(=O)c12 [Example 20, 6-(2,5-Dichlorophenyl)-5-hydroxy-1,3-dimethyl-1,7-dihydro-4H-pyrazolo[3,4-b]pyridin-4-one]
100% | 100% | > 150 nM | Cc1nn(C)c2[nH]c(-c3ccc(C(F)(F)F)cc3F)c(O)c(=O)c12 [Example 21, 6-[2-Fluoro-4-(trifluoromethyl)phenyl]-5-hydroxy-1,3-dimethyl-1,7-dihydro-4H-pyrazolo[3,4-b]pyridin-4-one]
100% | 80.9% | > 150 nM | Cc1nn(C)c2[nH]c(-c3ccc(C(F)(F)F)c(F)c3)c(O)c(=O)c12 [Example 22, 6-[3-Fluoro-4-(trifluoromethyl)phenyl]-5-hydroxy-1,3-dimethyl-1,7-dihydro-4H-pyrazolo[3,4-b]pyridin-4-one]
100% | 99.3% | 50 to 100 nM | COc1ccc(Cl)c(-c2[nH]c3c(c(C)nn3C)c(=O)c2O)c1 [Example 23, 6-(2-Chloro-5-methoxyphenyl)-5-hydroxy-1,3-dimethyl-1,7-dihydro-4H-pyrazolo[3,4-b]pyridin-4-one]
88.9% | – | > 150 nM | Cc1nn(C)c2[nH]c(-c3ccc(Cl)c(C(F)(F)F)c3)c(O)c(=O)c12 [Example 24, 6-[3-Chloro-3-(trifluoromethyl)phenyl]-5-hydroxy-1,3-dimethyl-1,7-dihydro-4H-pyrazolo[3,4-b]pyridin-4-one]
90.7% | 78.3% | – | Cc1nn(C)c2[nH]c(-c3ccc(Cl)cc3F)c(O)c(=O)c12 [Example 25, 6-(4-Chloro-2-fluorophenyl)-5-hydroxy-1,3-dimethyl-1,7-dihydro-4H-pyrazolo[3,4-b]pyridin-4-one]
